Patent publication US20260355196A1, “INHIBITORS AND DEGRADERS OF PIP4K PROTEIN” (Larkspur Biosciences, Inc., priority 2023, published 2026)

These molecules were tested against T1, PIP4K2C (Homo sapiens, UniProt Q8TBX8) (assay: Enzyme Binding Assay (KINOMEscan): active site-directed competition binding to an immobilized ligand). Details: 11-point dose response, duplicate, top concentration 5 micromolar; read-out: Pip4k2c Kd: IC50.
T1 sequence (Q8TBX8 1-421): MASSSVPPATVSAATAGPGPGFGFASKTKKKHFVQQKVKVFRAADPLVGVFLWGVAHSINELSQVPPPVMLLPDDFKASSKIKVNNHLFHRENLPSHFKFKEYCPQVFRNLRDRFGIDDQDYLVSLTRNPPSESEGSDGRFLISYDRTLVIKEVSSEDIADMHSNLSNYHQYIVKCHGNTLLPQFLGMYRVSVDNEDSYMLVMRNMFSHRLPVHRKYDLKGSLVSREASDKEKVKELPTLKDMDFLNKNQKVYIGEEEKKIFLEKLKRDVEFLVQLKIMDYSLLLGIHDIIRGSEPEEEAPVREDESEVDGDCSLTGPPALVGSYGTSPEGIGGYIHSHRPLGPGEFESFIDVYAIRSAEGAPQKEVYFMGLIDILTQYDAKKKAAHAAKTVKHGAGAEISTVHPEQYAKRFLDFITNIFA
Design: purchased Eurofins DiscoverX, San Diego, CA 87-0007-1094
Description: Example B-1: Enzyme Binding Assays (KINOMEscan)
PIP4K2C binding constants disclosed herein were determined using the proprietary Human PIP4K2C binding assay (Catalog number 87-0007-1094, Eurofins DiscoverX, San Diego, CA). This assay measures active site-directed competition binding to an immobilized ligand (see https://doi.org/10.1038/nbt1068, herein incorporated by reference in its entirety). Experiments were conducted using an 11-point dose response curve, in duplicate, with a top starting concentration of 5 micromolar; the Levenberg-Marquardt algorithm was used to fit a Hill equation to dose-response data to calculate IC50 values (see Table 5).

SMILES | IC50
CNC(=O)[C@H]1CC[C@H](Nc2ncc(Cl)c(-c3cccc(-c4cccc(=O)[nH]4)c3)n2)CC1 [Compound 92, trans-(1r,4r)-4-((5-chloro-4-(3-(6-oxo-1,6-dihydropyridin-2-yl)phenyl)pyrimidin-2-yl)amino)-N-methylcyclohexane-1-carboxamide] | < 500 nM
CC(=O)N1CCC[C@H](Nc2ncc(Cl)c(-c3ccc(=O)n(-c4ccc(F)cc4)c3)n2)C1 [Compound 143, (S)-5-(2-((1-acetylpiperidin-3-yl)amino)-5-chloropyrimidin-4-yl)-1-(4-fluorophenyl)pyridin-2(1H)-one] | 500 to 1000 nM
CC(=O)N1CCC(Nc2ncc(Cl)c(C3CCN(c4ccccc4)C3)n2)CC1 (stereo not shown) [Compound 30, 1-(4-((5-chloro-4-(1-phenylpyrrolidin-3-yl)pyrimidin-2-yl)amino)piperidin-1-yl)ethan-1-one] | < 500 nM
CC(=O)N1CCC(Nc2ncc(Cl)c(-c3cc(C4CC4)[nH]n3)n2)CC1 [Compound 132, 1-(4-((5-chloro-4-(5-cyclopropyl-1H-pyrazol-3-yl)pyrimidin-2-yl)amino)piperidin-1-yl)ethan-1-one] | < 500 nM
CNC(=O)[C@H]1C[C@@H](Nc2ncc(Cl)c(-c3cnn(-c4ccc(=O)[nH]c4)c3)n2)C1 [Compound 164, cis-3-((5-chloro-4-(1-(6-oxo-1,6-dihydropyridin-3-yl)-1H-pyrazol-4-yl)pyrimidin-2-yl)amino)-N-methylcyclobutane-1-carboxamide] | < 500 nM
NC(=O)C1CCC(Nc2ncc(Cl)c(-c3cccc(-c4ccccc4)c3)n2)CC1 (stereo not shown) [Compound 1, 4-((4-([1,1′-biphenyl]-3-yl)-5-chloropyrimidin-2-yl)amino)cyclohexane-1-carboxamide] | 500 to 1000 nM
CNC(=O)[C@H]1CC[C@H](Nc2ncc(Cl)c(-c3cccc(-c4ccc(F)cc4)n3)n2)CC1 [Compound 159, trans-(1r,4r)-4-((5-chloro-4-(6-(4-fluorophenyl)pyridin-2-yl)pyrimidin-2-yl)amino)-N-methylcyclohexane-1-carboxamide] | < 500 nM
CN1CCC(Nc2ncc(Cl)c(-c3cccc(-c4ccccc4)c3)n2)CC1=O (stereo not shown) [Compound 16, 4-((4-([1,1′-biphenyl]-3-yl)-5-chloropyrimidin-2-yl)amino)-1-methylpiperidin-2-one] | < 500 nM
CNC(=O)[C@H]1CC[C@@H](Nc2ncc(Cl)c(-c3cnn(C4CCCCC4)c3)n2)CC1 [Compound 108, cis-(1s,4s)-4-((5-chloro-4-(1-cyclohexyl-1H-pyrazol-4-yl)pyrimidin-2-yl)amino)-N-methylcyclohexane-1-carboxamide] | 1000 to 5000 nM
CC(=O)N1CCC[C@H](Nc2ncc(Cl)c(N3CCC(c4ccccn4)C3)n2)C1 (stereo partly drawn) [Compound 29, 1-((3S)-3-((5-chloro-4-(3-(pyridin-2-yl)pyrrolidin-1-yl)pyrimidin-2-yl)amino)piperidin-1-yl)ethan-1-one] | 1000 to 5000 nM
CC(=O)N[C@H]1CC[C@@H](Nc2ncc(Cl)c(-c3cccc(-c4ccccc4)c3)n2)CC1 [Compound 31, N-(cis-4-((4-([1,1′-biphenyl]-3-yl)-5-chloropyrimidin-2-yl)amino)cyclohexyl)acetamide] | 500 to 1000 nM
CNC(=O)[C@H]1CC[C@H](Nc2ncc(Cl)c(-c3cc(C4CC4)[nH]n3)n2)CC1 [Compound 144, trans-(1r,4r)-4-((5-chloro-4-(5-cyclopropyl-1H-pyrazol-3-yl)pyrimidin-2-yl)amino)-N-methylcyclohexane-1-carboxamide] | 1000 to 5000 nM

Further lines, results first:

IC50 | SMILES
< 500 nM | CC(=O)N1CCC(Nc2ncc(F)c(-c3ccnc(C(C)(C)O)c3)n2)CC1 [Compound 172, 1-(4-((5-fluoro-4-(2-(2-hydroxypropan-2-yl)pyridin-4-yl)pyrimidin-2-yl)amino)piperidin-1-yl)ethan-1-one]
< 500 nM | NC(=O)[C@H]1CC[C@H](Nc2ncc(F)c(-c3cccc(-n4ccccc4=O)n3)n2)CC1 [Compound 617, trans-4-((5-fluoro-4-(2-oxo-2H-[1,2′-bipyridin]-6′-yl)pyrimidin-2-yl)amino)cyclohexane-1-carboxamide]
< 500 nM | NC(=O)[C@H]1CC[C@H](Nc2ncc(F)c(-c3cccc(N4CCCCC4=O)c3)n2)CC1 [Compound 264, trans-4-((5-fluoro-4-(3-(2-oxopiperidin-1-yl)phenyl)pyrimidin-2-yl)amino)cyclohexane-1-carboxamide]
< 500 nM | CNC(=O)[C@H]1C[C@@H](Nc2ncc(Cl)c(-c3cnn(-c4ccc[nH]c4=O)c3)n2)C1 [Compound 193, cis-3-((5-chloro-4-(1-(2-oxo-1,2-dihydropyridin-3-yl)-1H-pyrazol-4-yl)pyrimidin-2-yl)amino)-N-methylcyclobutane-1-carboxamide]
< 500 nM | NC(=O)[C@@H]1CC[C@H](Nc2ncc(F)c(-c3cccc(-c4ccc[nH]c4=O)c3)n2)C1 [Compound 223, (1R,3S)-3-((5-fluoro-4-(3-(2-oxo-1,2-dihydropyridin-3-yl)phenyl)pyrimidin-2-yl)amino)cyclopentane-1-carboxamide]
500 to 1000 nM | CC(=O)N1CCC(Nc2ncc(F)c(N3CCCC(c4cc[nH]c(=O)c4)C3)n2)CC1 (stereo not shown) [Compound 224, 4-(1-(2-((1-acetylpiperidin-4-yl)amino)-5-fluoropyrimidin-4-yl)piperidin-3-yl)pyridin-2(1H)-one]
< 500 nM | CC(=O)N1CCC(Nc2ncc(F)c(-c3cccc(N4CCCCC4=O)c3)n2)CC1 [Compound 221, 1-(3-(2-((1-acetylpiperidin-4-yl)amino)-5-fluoropyrimidin-4-yl)phenyl)piperidin-2-one]
< 500 nM | CC(=O)N1CCC(Nc2ncc(F)c(-c3cccc(N4CCC[C@@H](O)C4)c3)n2)CC1 [Compound 209, (R)-1-(4-((5-fluoro-4-(3-(3-hydroxypiperidin-1-yl)phenyl)pyrimidin-2-yl)amino)piperidin-1-yl)ethan-1-one]
< 500 nM | NC(=O)[C@H]1CC[C@H](Nc2ncc(F)c(-c3cccc(C4(O)COC4)c3)n2)CC1 [Compound 181, trans-4-((5-fluoro-4-(3-(3-hydroxyoxetan-3-yl)phenyl)pyrimidin-2-yl)amino)cyclohexane-1-carboxamide]
< 500 nM | CNC(=O)[C@H]1C[C@H](Nc2ncc(Cl)c(-c3cnn(-c4ccc[nH]c4=O)c3)n2)C1 [Compound 166, trans-(1r,3r)-3-((5-chloro-4-(1-(2-oxo-1,2-dihydropyridin-3-yl)-1H-pyrazol-4-yl)pyrimidin-2-yl)amino)-N-methylcyclobutane-1-carboxamide]
< 500 nM | CC(=O)N1CCC(Nc2ncc(F)c(-c3cccc(C(=O)N4CCC(O)(CO)CC4)c3)n2)CC1 [Compound 217, 1-[4-[[5-fluoro-4-[3-[4-hydroxy-4-(hydroxymethyl)piperidine-1-carbonyl]phenyl]pyrimidin-2-yl]amino]-1-piperidyl]ethanone]
< 500 nM | NC(=O)[C@@H]1CCC[C@H](Nc2ncc(F)c(-c3cccc(-c4ccc[nH]c4=O)c3)n2)C1 [Compound 204, (1R,3S)-3-((5-fluoro-4-(3-(2-oxo-1,2-dihydropyridin-3-yl)phenyl)pyrimidin-2-yl)amino)cyclohexane-1-carboxamide]
< 500 nM | NC(=O)[C@H]1CC[C@H](Nc2ncc(F)c(-c3cccc(N4CCOC4=O)c3)n2)CC1 [Compound 245, trans-4-((5-fluoro-4-(3-(2-oxooxazolidin-3-yl)phenyl)pyrimidin-2-yl)amino)cyclohexane-1-carboxamide]
